Consider 22 molecules from patent publication US20070025986A1, “Modulation of HCN channels by second messengers” (priority 2003, published 2007).

Like-named read-outs stand apart in the source and are kept apart here. No end group written: not given here.

The test system of experiment [1] is native pacemaker channels (IH). The settings on record: cited from earlier work.
In the next experiment the test system is HCN1 channel. In words: Two microelectrode voltage clamp (2MEV) of HCN1 and HCN1 mutants expressed in Xenopus oocytes. The class given is cell-based, mouse. To be noted: forskolin 10 μM, 30 min, SQ-22536 300 μM, 3 hr.
Where [2] appears, read: MTNB: medial nucleus of the trapezoid body.
Where [3] appears, read: SO: CA1 stratum oriens-alveus interneuron.
The mark [4] stands for this setting: ADn: Thalamic anterior dorsal relay neurons.
The mark [5] stands for this setting: CP: Cerebellar purkinje neurons.
Setting [6] is: DRG: Dorsal root ganglion neurons.
Where [7] appears, read: CA1: CA1 pyramidal neurons or unidentified CA1 cells.
The mark [8] stands for this setting: ORN: Olfactory receptor neurons.

On to `NC[C@H](O)c1ccc(O)c(O)c1` [NorE], for which the “Δ IMAX” value in experiment [1] (AT: atrial myocyte) is “+90%”; in experiment [1] (ECM: Embryonic cardiomyocytes), “+65%”; in experiment [1] (setting [3]), “+30%”; in experiment [1] (TR: thalamic relay), “ECM; +31% TR; BC;”. In addition, the “Δ V1/2” value in experiment [1] (AT: atrial myocyte) is reported as “+11 mV”; in experiment [1] (BC: cerebllar basket cell), “+6 mV”; in experiment [1] (setting [2]), “+12 mV”; in experiment [1] (TR: thalamic relay) it was “+5 mV”.

Regarding `NCC(CC(=O)O)c1ccc(Cl)cc1` (stereo not shown) [Baclofen], the “Δ IMAX” value was −11% in experiment [1] (SNZC: Substantia nigra zona compacta) and −20% in experiment [1] (VT: Ventral tegmental neurons).

`CC(C)NCC(O)c1ccc(O)c(O)c1` (stereo not shown) [Isoproterenol]: the “Δ IMAX” value in experiment [1] (AT: atrial myocyte) is “+90%”; in experiment [1] (ECM: Embryonic cardiomyocytes), “+65%”; in experiment [1] (setting [3]), “+30%”; in experiment [1] (TR: thalamic relay), “ECM; +31% TR; BC;”. The “Δ V1/2” value is on record as “+11 mV” in experiment [1] (AT: atrial myocyte), “+6 mV” in experiment [1] (BC: cerebllar basket cell), “+12 mV” in experiment [1] (setting [2]) and “+5 mV” in experiment [1] (TR: thalamic relay).

Turning to `Nc1ncnc2c1ncn2C1CCCO1` (stereo not shown) [SQ-22536], the Effect on gating result in the experiment with HCN1 channel (HCN1-R538E) is “not altered”. In addition, the “Effect on V1/2 of activation” value with HCN1 channel (wild type HCN1) is reported as “inhibited”.

Regarding `C[N+](C)(C)CCOC(N)=O` [carbachol], the “Δ IMAX” value in experiment [1] (ECM: Embryonic cardiomyocytes) is −41%; in experiment [1] (LGN), “CA1; +43% LGN”. The “Δ V1/2” value in experiment [1] (LGN) is “CA1; +5 mV LGN”; in experiment [1] (PF: cardiac purkinje fibre), −8 mV SA, PF; in experiment [1] (SA: sinoatrial node), −8 mV SA, PF.

As for `CCCN(CCC)C1CCc2cccc(O)c2C1` (stereo not shown) [8-OH-DPAT], the “Δ IMAX” value in experiment [1] (ST: Solitary tract neurons) is listed as “+100% ST”.

In the case of “Sub P: agonist listed for tachykinin NK 1/2/3 receptor (RPKPQQFFGLM; ends and bridges not checked; UniProt P20366 58-68, looked up)”, in experiment [1] (NG: Nodose ganglion), the “Δ V1/2” value is given as −20 mV. NG.

`NCCc1c[nH]c2ccc(O)cc12` [5-HT]: the “Δ V1/2” value is listed as “+15 mV” in experiment [1] (setting [4]); “+6 mV BSMN” in experiment [1] (BSMN: Brainstem motor neurons); “+10 mV” in experiment [1] (CMN: crustacean motor neurons); −8 mV in experiment [1] (setting [5]); “+6 mV” in experiment [1] (setting [6]); “+5 mV” in experiment [1] (TR: thalamic relay). Also, the “Δ V1/2” value in experiment [1] (VT: Ventral tegmental neurons) is −7 m. For the same molecule, the “Δ IMAX” value in experiment [1] (CMN: crustacean motor neurons) is recorded as “+20%”; in experiment [1] (FM: Facial motor neurons), “+25%”; in experiment [1] (PH: Prepositus Hyperglossi neurons) it was “+30%”; in experiment [1] (ST: Solitary tract neurons), “+100% ST”; in experiment [1] (TR: thalamic relay), “+20%”.

For `COc1cc(CC(C)N)c(OC)cc1I` (stereo not shown) [DOI], the “Δ V1/2” value is recorded as −8 mV in experiment [1] (setting [5]) and −7 m in experiment [1] (VT: Ventral tegmental neurons). Moreover, in experiment [1] (FM: Facial motor neurons), the “Δ IMAX” value is recorded as “+25%”.

Turning to `NCCc1c[nH]c2ccc(C(N)=O)cc12` [5CT], the “Δ V1/2” value in experiment [1] (setting [4]) is given as “+15 mV”; in experiment [1] (setting [7]), “+5 mV CA1”; in experiment [1] (setting [6]), “+6 mV”. Besides, in experiment [1] (setting [7]), the “Δ IMAX” value was “+50%”.

Take `OC[C@H]1O[C@@H](n2cnc3c(NC4CCCC4)ncnc32)[C@H](O)[C@@H]1O` [N6-CPA]: the “Δ V1/2” value is recorded as −7 mV in experiment [1] (setting [6]) and −6 mV in experiment [1] (SA: sinoatrial node).

As for `CCCCC[C@H](O)/C=C/[C@H]1[C@H](O)CC(=O)[C@@H]1C/C=C\CCCC(=O)O` [PGE2], in experiment [1] (NG: Nodose ganglion), the “Δ IMAX” value is listed as “+18% NG, TG” and the “Δ V1/2” value is given as “+6 mV NG, TG”. In experiment [1] (TG: Trigeminal ganglion), the “Δ IMAX” value was “+18% NG, TG” and the “Δ V1/2” value was “+6 mV NG, TG”.

`NCCc1ccc(O)c(O)c1` [Dopamine]: the “Δ IMAX” value in experiment [1] (setting [8]) is given as −50%; in experiment [1] (ROD: Rod photoreceptors), −30% ROD; in experiment [1] (VT: Ventral tegmental neurons), −20%. Moreover, the “Δ V1/2” value in experiment [1] (setting [8]) is −9 mV; in experiment [1] (PG: Pyloric ganglion motor neurons) it was “+20 mV PG”; in experiment [1] (ROD: Rod photoreceptors), −17 mV.

In the case of `Nc1ncnc2c1ncn2[C@@H]1O[C@H](CO)[C@@H](O)[C@H]1O` [Adenosine], the “Δ V1/2” value in experiment [1] (setting [6]) is reported as −7 mV; in experiment [1] (SA: sinoatrial node) it was −6 mV.

Regarding “VIP: agonist listed for PAC1 receptor (HSDAVFTDNYTRLRKQMAVKKYLNSILN; ends and bridges not checked; UniProt P01282 125-152, looked up)”, in experiment [1] (TR: thalamic relay), the “Δ IMAX” value is given as “+30% TR” and the “Δ V1/2” value is on record as “+7 mV TR”.

In the case of “PACAP38: agonist listed for PAC1 receptor (HSDGIFTDSYSRYRKQMAVKKYLAAVLGKRYKQRVKNK; ends and bridges not checked; UniProt P18509 132-169, looked up)”, in experiment [1] (TR: thalamic relay), the “Δ IMAX” value is reported as “+30% TR” and the “Δ V1/2” value is given as “+7 mV TR”.

`OC[C@H]1O[C@@H](n2cnc3c(NC4CCCCC4)ncnc32)[C@H](O)[C@@H]1O` [N6-CHA]: the “Δ V1/2” value in experiment [1] (setting [6]) was −7 mV; in experiment [1] (SA: sinoatrial node), −6 mV.

For `CCCCCCCC/C=C/CCCCCCCC(=O)OCC(CO)OC(C)=O` (stereo not shown) [OAG], the “Δ IMAX” value in experiment [1] (SNPC: Substantia nigra pars compacta) is given as −49% SNPC.

In the case of EGF: agonist listed for EGF receptor, in experiment [1] (SA: sinoatrial node), the “Δ IMAX” value was “+23% SA”.

With `Clc1cccc(Cl)c1N=C1NCCN1` [Clonidine], the “Δ IMAX” value in experiment [1] (setting [6]) is reported as “HG, −40% DRG”. Further, in experiment [1] (HG: Hypoglossal motor neurons), the “Δ V1/2” value is listed as −4 mV HG.

As for “AT-II: agonist listed for angiotensin AT½ receptor (DRVYIHPF; Angiotensin-2; UniProt P01019 25-32, looked up)”, in experiment [1] (PVN: Hypothalamic paraventricular neurons), the “Δ V1/2” value is recorded as “+8m PVN”.

B1: BDNF: neurotrophin, agonist listed for TrkA/B/C, P75 (protein, UniProt P23560 19-247, looked up)
Neurotrophic factor BDNF …: APMKEANIRGQGGLAYPGVRTHGTLESVNGPKAGSRGLTSLADTFEHVIEELLDEDQKVRPNEENNKDADLYTSRVMLSSQVPLEPPLLFLLEEYKNYLDAANMSMRVRRHSDPARRGELSVCDSISEWVTAADKKTAVDMSGGTVTVLEKVPVSKGQLKQYFYETKCNPMGYTKEGCRGIDKRHWNSQCRTTQSYVRALTMDSKKRIGWRFIRIDTSCVCTLTIKRGR
For the molecule B1, in experiment [1] (PBC: Pre-botzinger complex), the “Δ IMAX” value was −46% PBC and the “Δ V1/2” value is on record as −17 mV PBC.
